Assay results taken from patent US4409210A, “Antibiotic compound” (priority 1982, dated 1983).
≈ marks a conversion by molar mass, not a printed value. Where two headings read alike, the source gives them in different places.

Columns and labels:
Format in all cases: cell-based
[1] = tested on: Staphylococcus aureus Smith; test: MIC, serial two-fold dilution method (aerobic); conditions: read-out: minimum inhibitory concentration (MIC)
[2] = tested on: Staphylococcus aureus BX-1633; test: MIC, serial two-fold dilution method (aerobic)
[3] = tested on: Staphylococcus aureus A9601; test: MIC, serial two-fold dilution method (aerobic)
[4] = tested on: Staphylococcus aureus A9856; test: MIC, serial two-fold dilution method (aerobic)
[5] = tested on: Staphylococcus aureus A20239; test: MIC, serial two-fold dilution method (aerobic)
[6] = tested on: Staphylococcus aureus A20701; test: MIC, serial two-fold dilution method (aerobic)
[7] = tested on: Staphylococcus aureus A22421; test: MIC, serial two-fold dilution method (aerobic)
Micrococcus flavus D-12 = test: MIC, serial two-fold dilution method (aerobic)
Escherichia coli NIHJ = test: MIC, serial two-fold dilution method (aerobic); conditions: read-out: minimum inhibitory concentration (MIC)
[8] = tested on: Klebsiella pneumoniae D-11; test: MIC, serial two-fold dilution method (aerobic)
Proteus mirabilis A9554 = test: MIC, serial two-fold dilution method (aerobic)
Proteus vulgaris A9436 = test: MIC, serial two-fold dilution method (aerobic)
[9] = tested on: Pseudomonas aeruginosa D-113; test: MIC, serial two-fold dilution method (aerobic)
[10] = tested on: Clostridium acidiurici A9560; test: MIC, serial two-fold dilution method (anaerobic); conditions: Gottschalkia acidurici
[11] = tested on: Clostridium perfringens A9635; test: microbe, parasite or virus in culture; conditions: Clostridium perfringens, A9635, read-out: minimum inhibitory concentration (MIC)
[12] = tested on: Propionibacterium acnes A21953; test: MIC, serial two-fold dilution method (anaerobic); conditions: Cutibacterium acnes
[13] = tested on: Propionibacterium acnes A22650; test: MIC, serial two-fold dilution method (anaerobic); conditions: Cutibacterium acnes
[14] = tested on: Peptostreptococcus anaerobius A21905; test: MIC, serial two-fold dilution method (anaerobic)
[15] = tested on: Peptostreptococcus intermedius A21881; test: MIC, serial two-fold dilution method (anaerobic)
[16] = tested on: Peptococcus magnas A21676; test: MIC, serial two-fold dilution method (anaerobic); conditions: read-out: minimum inhibitory concentration (MIC)
[17] = tested on: Bacteroides fragilis A20929; test: MIC, serial two-fold dilution method (anaerobic)
[18] = tested on: Bacteroides fragilis A21900; test: MIC, serial two-fold dilution method (anaerobic)
[19] = tested on: Bacteroides fragilis A22053; test: MIC, serial two-fold dilution method (anaerobic)
[20] = tested on: Bacteroides fragilis A22533; test: MIC, serial two-fold dilution method (anaerobic)
[21] = tested on: Bacteroides fragilis A22695; test: MIC, serial two-fold dilution method (anaerobic)
[22] = tested on: Bacteroides ovatus A22400; test: MIC, serial two-fold dilution method (anaerobic)
[23] = tested on: Fusobacterium necrophorum A20013; test: MIC, serial two-fold dilution method (anaerobic)
[24] = tested on: Fusobacterium nucleatum A21906; test: MIC, serial two-fold dilution method (anaerobic)
[25] = tested on: Veillonella parvula A20010; test: MIC, serial two-fold dilution method (anaerobic)

CN[C@H](CC(C)C)C(=O)N[C@H]1C(=O)N[C@@H](CC(N)=O)C(=O)N[C@H]2C(=O)N[C@H]3C(=O)N[C@H](C(=O)N[C@H](C(=O)O)c4cc(O)cc(O)c4-c4cc3ccc4O)[C@H](O)c3ccc(c(Cl)c3)Oc3cc2cc(c3O[C@@H]2O[C@H](CO)[C@@H](O)[C@H](O)[C@H]2O[C@H]2C[C@](C)(N)[C@H](O)[C@H](C)O2)Oc2ccc(cc2Cl)[C@H]1O [Vancomycin]
MIC ([1]; Staphylococcus aureus): 0.8 µg/mL (≈ 0.552 µM) | MIC ([2]; Staphylococcus aureus, BX1633, read-out: minimum inhibitory concentration (MIC)): 0.8 µg/mL (≈ 0.552 µM) | MIC ([3]; Staphylococcus aureus, A9601, read-out: minimum inhibitory concentration (MIC)): 0.8 µg/mL (≈ 0.552 µM) | MIC ([4]; Staphylococcus aureus, A9856, read-out: minimum inhibitory concentration (MIC)): 0.8 µg/mL (≈ 0.552 µM) | MIC ([5]; Staphylococcus aureus, A20239, read-out: minimum inhibitory concentration (MIC)): 1.6 µg/mL (≈ 1.1 µM) | MIC ([6]; Staphylococcus aureus, A20701, read-out: minimum inhibitory concentration (MIC)): 0.8 µg/mL (≈ 0.552 µM) | MIC ([7]; Staphylococcus aureus, A22421, read-out: minimum inhibitory concentration (MIC)): 0.8 µg/mL (≈ 0.552 µM) | MIC (Micrococcus flavus D-12; Micrococcus flavus, D12, read-out: minimum inhibitory concentration (MIC)): 0.2 µg/mL (≈ 0.138 µM) | MIC (Escherichia coli NIHJ; Escherichia coli): > 100 µg/mL | MIC ([8]; Klebsiella pneumoniae, D11, read-out: minimum inhibitory concentration (MIC)): > 100 µg/mL | MIC (Proteus mirabilis A9554; Proteus mirabilis, A9554, read-out: minimum inhibitory concentration (MIC)): > 100 µg/mL | MIC (Proteus vulgaris A9436; Proteus vulgaris, A9436, read-out: minimum inhibitory concentration (MIC)): > 100 µg/mL | MIC ([9]; Pseudomonas aeruginosa, D113, read-out: minimum inhibitory concentration (MIC)): > 100 µg/mL | MIC ([10]; A9560, read-out: minimum inhibitory concentration (MIC)): 0.8 µg/mL (≈ 0.552 µM) | MIC [11]: 1.6 µg/mL (≈ 1.1 µM) | MIC ([12]; A21953, read-out: minimum inhibitory concentration (MIC)): 0.8 µg/mL (≈ 0.552 µM) | MIC ([13]; A22650, read-out: minimum inhibitory concentration (MIC)): 0.8 µg/mL (≈ 0.552 µM) | MIC ([14]; Peptostreptococcus anaerobius, A21905, read-out: minimum inhibitory concentration (MIC)): 0.4 µg/mL (≈ 0.276 µM) | MIC ([15]; Peptostreptococcus, A21881, read-out: minimum inhibitory concentration (MIC)): 1.6 µg/mL (≈ 1.1 µM) | MIC [16]: < 0.05 µg/mL | MIC ([17]; Bacteroides fragilis, A20929, read-out: minimum inhibitory concentration (MIC)): 0.8 µg/mL (≈ 0.552 µM) | MIC ([18]; Bacteroides fragilis, A21900, read-out: minimum inhibitory concentration (MIC)): 6.3 µg/mL (≈ 4.35 µM) | MIC ([19]; Bacteroides fragilis, A22053, read-out: minimum inhibitory concentration (MIC)): 50 µg/mL (≈ 34.5 µM) | MIC ([20]; Bacteroides fragilis, A22533, read-out: minimum inhibitory concentration (MIC)): 50 µg/mL (≈ 34.5 µM) | MIC ([21]; Bacteroides fragilis, A22695, read-out: minimum inhibitory concentration (MIC)): 25 µg/mL (≈ 17.3 µM) | MIC ([22]; Bacteroides ovatus, A22400, read-out: minimum inhibitory concentration (MIC)): 50 µg/mL (≈ 34.5 µM) | MIC ([23]; Fusobacterium necrophorum, A20013, read-out: minimum inhibitory concentration (MIC)): > 100 µg/mL | MIC ([24]; Fusobacterium nucleatum, A21906, read-out: minimum inhibitory concentration (MIC)): 0.8 µg/mL (≈ 0.552 µM) | MIC ([25]; Veillonella parvula, A20010, read-out: minimum inhibitory concentration (MIC)): 0.8 µg/mL (≈ 0.552 µM)

CC[C@H]1OC(=O)[C@H](C)[C@@H](O[C@H]2C[C@@](C)(OC)[C@@H](O)[C@H](C)O2)[C@H](C)[C@@H](O[C@@H]2O[C@H](C)C[C@H](N(C)C)[C@H]2O)[C@](C)(O)C[C@@H](C)C(=O)[C@H](C)[C@@H](O)[C@]1(C)O [Erythromycin]
MIC ([1]; Staphylococcus aureus Smith, Mueller-Hinton agar, inoculum 10^4): 0.2 µg/mL (≈ 0.273 µM) | MIC ([2]; BX1633, Staphylococcus aureus BX-1633, Mueller-Hinton agar, inoculum 10^4, read-out: minimum inhibitory concentration (MIC)): 0.2 µg/mL (≈ 0.273 µM) | MIC ([3]; Staphylococcus aureus A9601, Mueller-Hinton agar, inoculum 10^4, read-out: minimum inhibitory concentration (MIC)): 0.4 µg/mL (≈ 0.545 µM) | MIC ([4]; Staphylococcus aureus A9856, Mueller-Hinton agar, inoculum 10^4, read-out: minimum inhibitory concentration (MIC)): 0.2 µg/mL (≈ 0.273 µM) | MIC ([5]; Staphylococcus aureus A20239, Mueller-Hinton agar, inoculum 10^4, read-out: minimum inhibitory concentration (MIC)): 12.5 µg/mL (≈ 17 µM) | MIC ([6]; Staphylococcus aureus A20701, Mueller-Hinton agar, inoculum 10^4, read-out: minimum inhibitory concentration (MIC)): > 100 µg/mL | MIC ([7]; Staphylococcus aureus A22421, Mueller-Hinton agar, inoculum 10^4, read-out: minimum inhibitory concentration (MIC)): 6.3 µg/mL (≈ 8.58 µM) | MIC (Micrococcus flavus D-12; D12, Micrococcus flavus D-12, Mueller-Hinton agar, inoculum 10^4, read-out: minimum inhibitory concentration (MIC)): < 0.05 µg/mL | MIC (Escherichia coli NIHJ; Escherichia coli NIHJ, Mueller-Hinton agar, inoculum 10^4): 100 µg/mL (≈ 136 µM) | MIC ([8]; D11, Klebsiella pneumoniae D-11, Mueller-Hinton agar, inoculum 10^4, read-out: minimum inhibitory concentration (MIC)): 100 µg/mL (≈ 136 µM) | MIC (Proteus mirabilis A9554; Proteus mirabilis A9554, Mueller-Hinton agar, inoculum 10^4, read-out: minimum inhibitory concentration (MIC)): > 100 µg/mL | MIC (Proteus vulgaris A9436; Proteus vulgaris A9436, Mueller-Hinton agar, inoculum 10^4, read-out: minimum inhibitory concentration (MIC)): 100 µg/mL (≈ 136 µM) | MIC ([9]; D113, Pseudomonas aeruginosa D-113, Mueller-Hinton agar, inoculum 10^4, read-out: minimum inhibitory concentration (MIC)): 100 µg/mL (≈ 136 µM) | MIC ([10]; Clostridium acidiurici A9560, GAM agar medium, inoculum 10^7-10^8, read-out: minimum inhibitory concentration (MIC)): 1.6 µg/mL (≈ 2.18 µM) | MIC [11]: 0.8 µg/mL (≈ 1.09 µM) | MIC ([12]; Propionibacterium acnes A21953, GAM agar medium, inoculum 10^7-10^8, read-out: minimum inhibitory concentration (MIC)): 0.8 µg/mL (≈ 1.09 µM) | MIC ([13]; Propionibacterium acnes A22650, GAM agar medium, inoculum 10^7-10^8, read-out: minimum inhibitory concentration (MIC)): < 0.0063 µg/mL | MIC ([14]; Peptostreptococcus anaerobius A21905, GAM agar medium, inoculum 10^7-10^8, read-out: minimum inhibitory concentration (MIC)): 0.8 µg/mL (≈ 1.09 µM) | MIC ([15]; Peptostreptococcus intermedius A21881, GAM agar medium, inoculum 10^7-10^8, read-out: minimum inhibitory concentration (MIC)): 0.4 µg/mL (≈ 0.545 µM) | MIC ([16]; Peptococcus magnas A21676, GAM agar medium, inoculum 10^7-10^8): 0.8 µg/mL (≈ 1.09 µM) | MIC ([17]; Bacteroides fragilis A20929, GAM agar medium, inoculum 10^7-10^8, read-out: minimum inhibitory concentration (MIC)): 1.6 µg/mL (≈ 2.18 µM) | MIC ([18]; Bacteroides fragilis A21900, GAM agar medium, inoculum 10^7-10^8, read-out: minimum inhibitory concentration (MIC)): 0.4 µg/mL (≈ 0.545 µM) | MIC ([19]; Bacteroides fragilis A22053, GAM agar medium, inoculum 10^7-10^8, read-out: minimum inhibitory concentration (MIC)): 3.1 µg/mL (≈ 4.22 µM) | MIC ([20]; Bacteroides fragilis A22533, GAM agar medium, inoculum 10^7-10^8, read-out: minimum inhibitory concentration (MIC)): 0.4 µg/mL (≈ 0.545 µM) | MIC ([21]; Bacteroides fragilis A22695, GAM agar medium, inoculum 10^7-10^8, read-out: minimum inhibitory concentration (MIC)): 3.1 µg/mL (≈ 4.22 µM) | MIC ([22]; Bacteroides ovatus A22400, GAM agar medium, inoculum 10^7-10^8, read-out: minimum inhibitory concentration (MIC)): > 100 µg/mL | MIC ([23]; Fusobacterium necrophorum A20013, GAM agar medium, inoculum 10^7-10^8, read-out: minimum inhibitory concentration (MIC)): > 100 µg/mL | MIC ([24]; Fusobacterium nucleatum A21906, GAM agar medium, inoculum 10^7-10^8, read-out: minimum inhibitory concentration (MIC)): 1.6 µg/mL (≈ 2.18 µM) | MIC ([25]; Veillonella parvula A20010, GAM agar medium, inoculum 10^7-10^8, read-out: minimum inhibitory concentration (MIC)): 3.1 µg/mL (≈ 4.22 µM)
